Experimental data reported in US20260262643A1, “HERBICIDAL BENZOXAZINES” (FMC CORPORATION, priority 2022, published 2026).

What was measured:
green foxtail [1] = assay: Test C postemergence; format: in vivo, Setaria viridis; details: 10 days, 0 to 100 scale (0 no effect, 100 complete control)
How it was run: (§1)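 Seeds in loam–sand blend received preemergence directed soil spray of test chemicals in non-phytotoxic solvent with surfactant; postemergence treatment was applied at one- to two-leaf stage (2–10 cm). After 10 days in greenhouse, injury rated visually versus untreated controls, 0 (no effect) to 100 (complete control).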

galium = assay: Test C postemergence; format: in vivo, Galium aparine; details: 10 days, 0 to 100 scale (0 no effect, 100 complete control)
How it was run: as §1

blackgrass [2] = assay: Test C postemergence; format: in vivo, Alopecurus myosuroides; details: 10 days, 0 to 100 scale (0 no effect, 100 complete control)
How it was run: as §1

soybean [3] = assay: Test C preemergence; format: in vivo, Glycine max
How it was run: as §1

oat, wild [4] = assay: Test C postemergence; format: in vivo, Avena fatua; details: 10 days, 0 to 100 scale (0 no effect, 100 complete control)
How it was run: as §1

horseweed = assay: Test C postemergence; format: in vivo, Erigeron canadensis; details: 10 days, 0 to 100 scale (0 no effect, 100 complete control)
How it was run: as §1

corn [5] = assay: Test C preemergence; format: in vivo, Zea mays
How it was run: as §1

soybean [6] = assay: Test C postemergence; format: in vivo, Glycine max; details: 10 days, 0 to 100 scale (0 no effect, 100 complete control)
How it was run: as §1

ducksalad = assay: Test D flooded paddy test; format: in vivo, Heteranthera limosa; details: 250 g ai/ha, applied to paddy water, visual rating after 13 to 14 days, scale 0 to 100 (0 no effect, 100 complete control)
How it was run: (§2)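 Seedlings reached the 2-leaf stage, then pots were flooded to 3 cm over the soil surface. Compound was applied into the water, depth was maintained, and plants stayed in the greenhouse 13 to 14 days before visual scoring (0–100) relative to controls.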

barnyardgrass [7] = assay: Test C postemergence; format: in vivo, Echinochloa crusgalli; details: 10 days, 0 to 100 scale (0 no effect, 100 complete control)
How it was run: as §1

green foxtail [8] = assay: Test C preemergence; format: in vivo, Setaria viridis
How it was run: as §1

blackgrass [9] = assay: Test C preemergence; format: in vivo, Alopecurus myosuroides
How it was run: as §1

ragweed [10] = assay: Test C postemergence; format: in vivo, Ambrosia artemisiifolia; details: 10 days, 0 to 100 scale (0 no effect, 100 complete control)
How it was run: as §1

rice = assay: Test D flooded paddy test; format: in vivo, Oryza sativa; details: 250 g ai/ha, applied to paddy water, visual rating after 13 to 14 days, scale 0 to 100 (0 no effect, 100 complete control)
How it was run: as §2

pigweed, palmer [11] = assay: Test C postemergence; format: in vivo, Amaranthus palmeri; details: 10 days, 0 to 100 scale (0 no effect, 100 complete control)
How it was run: as §1

wheat [12] = assay: Test C preemergence; format: in vivo, Triticum aestivum
How it was run: as §1

barnyardgrass [13] = assay: Test D flooded paddy test; format: in vivo, Echinochloa crus-galli; details: 250 g ai/ha, applied to paddy water, visual rating after 13 to 14 days, scale 0 to 100 (0 no effect, 100 complete control)
How it was run: as §2

kochia [14] = assay: Test C preemergence; format: in vivo, Bassia scoparia
How it was run: as §1

ryegrass, Italian [15] = assay: Test C postemergence; format: in vivo, Lolium multiflorum; details: 10 days, 0 to 100 scale (0 no effect, 100 complete control)
How it was run: as §1

sedge, umbrella = assay: Test D flooded paddy test; format: in vivo, Cyperus difformis; details: 250 g ai/ha, applied to paddy water, visual rating after 13 to 14 days, scale 0 to 100 (0 no effect, 100 complete control)
How it was run: as §2

pigweed, palmer [16] = assay: Test C preemergence; format: in vivo, Amaranthus palmeri
How it was run: as §1

oat, wild [17] = assay: Test C preemergence; format: in vivo, Avena fatua
How it was run: as §1

ryegrass, Italian [18] = assay: Test C preemergence; format: in vivo, Lolium multiflorum
How it was run: as §1

corn [19] = assay: Test C postemergence; format: in vivo, Zea mays; details: 10 days, 0 to 100 scale (0 no effect, 100 complete control)
How it was run: as §1

wheat [20] = assay: Test C postemergence; format: in vivo, Triticum aestivum; details: 10 days, 0 to 100 scale (0 no effect, 100 complete control)
How it was run: as §1

barnyardgrass [21] = assay: Test C preemergence; format: in vivo, Echinochloa crusgalli
How it was run: as §1

ragweed [22] = assay: Test C preemergence; format: in vivo, Ambrosia artemisiifolia
How it was run: as §1

kochia [23] = assay: Test C postemergence; format: in vivo, Bassia scoparia; details: 10 days, 0 to 100 scale (0 no effect, 100 complete control)
How it was run: as §1

[24] = 500 g ai/ha, preemergence, 0 to 100 scale (0 no effect, 100 complete control)
[25] = Preemergence, 125 g ai/ha, 0 to 100 scale, 0 no effect, 100 complete control

## CCOC[C@H]1CN(C(=O)c2cc(-n3cnc(C(C)(C)C)n3)cc3c2OCCO3)c2cccc(Cl)c2O1 [Compound 388]
Green foxtail [1]; 500 g ai/ha, postemergence
  Plant response rating, Foxtail, Green: 90
Green foxtail [1]; Postemergence, 125 g ai/ha
  Plant response rating, Foxtail, Green: 10
galium; 500 g ai/ha, postemergence
  Plant response rating, Galium: 100
galium; Postemergence, 125 g ai/ha
  Plant response rating, Galium: 70
Blackgrass [2]; 500 g ai/ha, postemergence
  Plant response rating, Blackgrass: 0
Blackgrass [2]; Postemergence, 125 g ai/ha
  Plant response rating, Blackgrass: 0
Soybean [3]; [24]
  Soybean plant response rating: 90
Soybean [3]; [25]
  Plant response rating, Soybean: 90
oat, wild [4]; 500 g ai/ha, postemergence
  Plant response rating, Oat, Wild: 40
oat, wild [4]; Postemergence, 125 g ai/ha
  Plant response rating, Oat, Wild: 20
horseweed; 500 g ai/ha, postemergence
  Plant response rating, Horseweed: 30
horseweed; Postemergence, 125 g ai/ha
  Plant response rating, Horseweed: 0
Corn [5]; [24]
  Corn plant response rating: 10
Corn [5]; [25]
  Plant response rating, Corn: . 10
Soybean [6]; 500 g ai/ha, postemergence
  Plant response rating, Soybean: 100
Soybean [6]; Postemergence, 125 g ai/ha
  Plant response rating, Soybean: 100
ducksalad
  Plant response rating, Ducksalad (Flood): 0
Barnyardgrass [7]; 500 g ai/ha, postemergence
  Plant response rating, Barnyardgrass: 20
Barnyardgrass [7]; Postemergence, 125 g ai/ha
  Plant response rating, Barnyardgrass: 10
Green foxtail [8]; [24]
  Foxtail, Green plant response rating: 100
Green foxtail [8]; [25]
  Plant response rating, Foxtail, Green: 60
Blackgrass [9]; [24]
  Blackgrass plant response rating: 40
Blackgrass [9]; [25]
  Plant response rating, Blackgrass: 10
Ragweed [10]; 500 g ai/ha, postemergence
  Plant response rating, Ragweed: 50
Ragweed [10]; Postemergence, 125 g ai/ha
  Plant response rating, Ragweed: 60
rice
  Plant response rating, Rice (Flood): 0
pigweed, palmer [11]; 500 g ai/ha, postemergence
  Plant response rating, Pigweed, Palmer: 100
pigweed, palmer [11]; Postemergence, 125 g ai/ha
  Plant response rating, Pigweed, Palmer: 100
Wheat [12]; [24]
  Wheat plant response rating: 20
Wheat [12]; [25]
  Plant response rating, Wheat: 20
Barnyardgrass [13]
  Plant response rating, Barnyardgrass (Flood): 0
Kochia [14]; [24]
  Kochia plant response rating: 100
Kochia [14]; [25]
  Plant response rating, Kochia: 40
ryegrass, Italian [15]; 500 g ai/ha, postemergence
  Plant response rating, Ryegrass, Italian: 30
ryegrass, Italian [15]; Postemergence, 125 g ai/ha
  Plant response rating, Ryegrass, Italian: 20
sedge, umbrella
  Plant response rating, Sedge, Umbrella (Flood): 0
pigweed, palmer [16]; [24]
  Pigweed, Palmer plant response rating: 100
pigweed, palmer [16]; [25]
  Plant response rating, Pigweed, Palmer: 100
oat, wild [17]; [24]
  Oat, Wild plant response rating: 40
oat, wild [17]; [25]
  Plant response rating, Oat, Wild: 20
ryegrass, Italian [18]; [24]
  Ryegrass, Italian plant response rating: 60
ryegrass, Italian [18]; [25]
  Plant response rating, Ryegrass, Italian: 50
Corn [19]; 500 g ai/ha, postemergence
  Plant response rating, Corn: 30
Corn [19]; Postemergence, 125 g ai/ha
  Plant response rating, Corn: 10
Wheat [20]; 500 g ai/ha, postemergence
  Plant response rating, Wheat: 10
Wheat [20]; Postemergence, 125 g ai/ha
  Plant response rating, Wheat: 10
Barnyardgrass [21]; [24]
  Barnyardgrass plant response rating: 90
Barnyardgrass [21]; [25]
  Plant response rating, Barnyardgrass: 50
Ragweed [22]; [24]
  Ragweed plant response rating: 60
Ragweed [22]; [25]
  Plant response rating, Ragweed: 60
Kochia [23]; 500 g ai/ha, postemergence
  Plant response rating, Kochia: 90
Kochia [23]; Postemergence, 125 g ai/ha
  Plant response rating, Kochia: 90
